Consider 24 molecules from patent US20220127247A1, “N-(PYRIDIN-2-YL)PYRIDINE-SULFONAMIDE DERIVATIVES AND THEIR USE IN THE TREATMENT OF DISEASE” (NOVARTIS AG, priority 2019, published 2022).

The structures appear in SMILES notation.

This experiment concerns the target T1, delF508-CFTR (Homo sapiens, UniProt P13569, DEL508-508).
T1 construct: expressed in transfected cells
Nature of the experiment: Measurement of delF508-CFTR-HRP surface expression in CFBE41o- cells. Particulars: for EC50: HRP-tagged delF508-CFTR in CFBE41o- cells, 24 h with compound, luminescence, 10-point curve, top 10 μM; for Emax: efficacy relative to reference compound 3-(6-(1-(2,2-difluorobenzo[d][1,3]dioxol-5-yl)cyclopropane-1-carboxamido)-3-methylpyridin-2-yl)benzoic acid, CFBE41o- cells, 24 h, read-out: DelF508-CFTR-HRP Amax %. In kind it is cell-based. The source says:
Measurement of delF508-CFTR-HRP Surface Expression in CFBE41o-Cells
This assay quantifies the cell surface expressions of the mutant CFTR channel using an extracellular HRP tag.
A cellular assay was developed to measure surface expression of horseradish peroxidase (HRP) tagged delF508-CFTR in the human bronchial epithelial immortalized CFBE41o-cell line (Phuan, P. W., et al, (2014) Molecular Pharmacology 86:42-51). Specifically, the HRP sequence was inserted into the fourth extracellular loop of delF508-CFTR and stably expressed in CFBE41o-cells. Cells were seeded in 384 well plate at a density of 5000 cells/well and incubated at 37° C. for 12 to 24 hours in medium (Gibco MEM #11095, 10% FBS, 10 mM HEPES, […], 200 μg/mL G418, 3 μg/mL Puromycin). The delF508-CFTR-HRP expression was induced with 500 ng/mL doxycycline (Sigma D-9891, dissolved in H2O and sterile filtered) in medium and the cells were incubated at 37° C. for 48 h. Old medium was removed and fresh medium was added containing 500 ng/mL doxycycline and unknown test compound at required test concentration in DMSO, not exceeding 0.5% final DMSO concentration. The highest concentration tested was 10 μM with a 10-point concentration response curve using a 3-fold dilution. After addition of compounds, the cells were incubated for 24 h at 37° C. On the final day, cells were washed four times in PBS containing 1 mM MgCl2 and 0.1 mM CaCl2. HRP-Substrate (SuperSignal ELISA Pico, Fisher #37069) 20 μl/well was added and the luminescence signal was determined (Viewlux, Perkin Elmer). Light was emitted upon addition of exogenous HRP-Substrate only when delF508-CFTR-HRP reached the cell surface and the HRP tag was accessible to the HRP-Substrate (note: HRP-Substrate cannot cross the lipid bilayer to reach delF508-CFTR-HRP misfolded within the cell).
The median activity for the lowest concentration of the compounds on each assay plate was calculated and this value was used to normalize the signal for each well on the respective plate. Three replicates at each concentrations for every compound were run to determine one EC50. The median value was determined and used to calculate compound activities as described below. Effective half maximal values (EC50) were calculated for each compound by performing logistic regression on measured dose-response data points using the equation: […]
where “Y” is the observed activity, “Bottom” is the lowest observed value, “Top” is the highest observed value, and the “Hill coefficient” gives the largest absolute value of the slope. The curve fitting is carried out by a curve fitting program implemented at GNF using Matlab (Mathworks).
The dose response curves also were used to calculate Fold Change (FC) using the equation: […]
Compound efficacy relative to the reference compound 3-(6-(1-(2,2-difluorobenzo[d][1,3]dioxol-5-yl)cyclopropane-1-carboxamido)-3-methylpyridin-2-yl)benzoic acid was determined using the following formula: […]

T1 sequence (P13569 with tags, fused parts or gaps DEL508-508): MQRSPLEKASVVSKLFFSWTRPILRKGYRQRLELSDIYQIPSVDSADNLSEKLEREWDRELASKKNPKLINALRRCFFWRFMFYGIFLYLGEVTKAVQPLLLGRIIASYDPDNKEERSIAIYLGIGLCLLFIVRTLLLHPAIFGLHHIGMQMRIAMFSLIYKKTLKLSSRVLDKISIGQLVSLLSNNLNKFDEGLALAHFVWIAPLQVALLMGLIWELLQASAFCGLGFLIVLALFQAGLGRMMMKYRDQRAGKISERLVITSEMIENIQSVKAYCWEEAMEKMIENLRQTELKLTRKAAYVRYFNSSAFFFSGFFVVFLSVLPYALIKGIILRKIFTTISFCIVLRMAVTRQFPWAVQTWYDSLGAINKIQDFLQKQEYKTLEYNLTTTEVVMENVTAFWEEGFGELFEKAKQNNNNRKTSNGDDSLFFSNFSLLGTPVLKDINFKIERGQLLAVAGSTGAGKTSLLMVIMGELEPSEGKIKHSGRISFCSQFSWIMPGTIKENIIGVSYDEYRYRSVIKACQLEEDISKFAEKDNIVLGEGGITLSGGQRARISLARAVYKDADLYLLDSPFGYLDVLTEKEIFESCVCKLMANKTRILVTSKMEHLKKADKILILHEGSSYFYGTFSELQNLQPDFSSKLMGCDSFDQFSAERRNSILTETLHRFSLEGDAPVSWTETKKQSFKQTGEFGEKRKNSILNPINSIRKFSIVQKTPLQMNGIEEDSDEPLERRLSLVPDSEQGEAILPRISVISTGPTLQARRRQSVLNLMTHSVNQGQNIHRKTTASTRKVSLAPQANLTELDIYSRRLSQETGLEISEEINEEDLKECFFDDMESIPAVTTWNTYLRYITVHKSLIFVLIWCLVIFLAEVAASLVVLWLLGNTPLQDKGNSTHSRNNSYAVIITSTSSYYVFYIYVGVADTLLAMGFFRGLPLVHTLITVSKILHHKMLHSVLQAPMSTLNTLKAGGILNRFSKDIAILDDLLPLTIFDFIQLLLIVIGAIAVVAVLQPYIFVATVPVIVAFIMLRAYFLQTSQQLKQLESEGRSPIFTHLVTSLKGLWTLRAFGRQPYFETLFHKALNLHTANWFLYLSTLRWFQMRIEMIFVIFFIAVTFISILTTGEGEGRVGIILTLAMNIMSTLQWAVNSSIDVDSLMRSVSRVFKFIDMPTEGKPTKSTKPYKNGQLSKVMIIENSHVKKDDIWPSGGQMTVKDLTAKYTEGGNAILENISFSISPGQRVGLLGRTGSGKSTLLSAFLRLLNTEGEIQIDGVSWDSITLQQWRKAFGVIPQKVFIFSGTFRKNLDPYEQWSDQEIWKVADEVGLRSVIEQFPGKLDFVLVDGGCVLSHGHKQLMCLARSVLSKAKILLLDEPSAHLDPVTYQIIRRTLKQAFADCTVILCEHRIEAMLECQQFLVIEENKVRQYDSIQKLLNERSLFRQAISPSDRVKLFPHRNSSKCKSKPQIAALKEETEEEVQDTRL

Regarding `Cc1ccccc1-c1nc(NS(=O)(=O)c2cccc(NC3CCCC(C(=O)O)C3)n2)ccc1C(F)(F)F` (mixture of isomers) [Compound 105, 3-((6-(N-(6-(o-tolyl)-5-(trifluoromethyl)pyridin-2-yl)sulfamoyl)pyridin-2-yl)amino)cyclohexane-1-carboxylic Acid], the EC50 came out at 1810 nM and the Emax came out at 361%.

Regarding `Cc1ccccc1-c1nc(NS(=O)(=O)c2cccc(N[C@@H]3CCC[C@H](C(=O)O)C3)n2)ccc1C(F)(F)F` (racemic) [106a 106b (racemic mixture)], the EC50 stood at 1950 nM and the Emax stood at 392%.

As to `Cc1ccccc1-c1nc(NS(=O)(=O)c2cccc(N[C@H]3[C@@H](C(=O)O)[C@H]4C=C[C@@H]3C4)n2)ccc1C(F)(F)F` (racemic) [107a 107b (racemic mixture)], the EC50 came out at 2070 nM and the Emax was 763%.

For the molecule `Cc1ccccc1-c1nc(NS(=O)(=O)c2cccc(N[C@@H]3[C@H]4CC[C@H](C4)[C@@H]3C(=O)O)n2)ccc1C(F)(F)F` (racemic) [108a 108b (racemic mixture)], the 50% effective concentration (EC50) was 2070 nM and the Emax amounted to 569%.

Take `Cc1ccccc1-c1nc(NS(=O)(=O)c2cccc(N[C@@H]3[C@@H]4CC[C@@H](C4)[C@@H]3C(=O)O)n2)ccc1C(F)(F)F` (racemic) [109a 109b (racemic mixture)]: the EC50 is 2320 nM and the Emax came out at 700%. Turning to `Cc1ccccc1-c1nc(NS(=O)(=O)c2cccc(N3CCC[C@@](C)(CC(=O)O)C3)n2)ccc1C(F)(F)F` (single isomer, unassigned) [Compound 122], the EC50 stood at 1620 nM and the Emax amounted to 785%. Regarding `Cc1ccccc1-c1nc(NS(=O)(=O)c2cccc(N3CCC[C@](C)(CC(=O)O)C3)n2)ccc1C(F)(F)F` (single isomer, unassigned) [Compound 123], the concentration for a half-maximal effect (EC50) is 1610 nM. As for `Cc1cccc(C)c1-c1nc(NS(=O)(=O)c2cccc(NCCC(=O)O)n2)ccc1Cl` [Compound 1, 3-((6-(N-(5-chloro-6-(2,6-dimethylphenyl)pyridin-2-yl)sulfamoyl)pyridin-2-yl)amino)propanoic Acid], the EC50 turned out to be 2150 nM and the Emax is 291%.

With `Cc1cccc(C)c1-c1nc(NS(=O)(=O)c2ccnc(NCCC(=O)O)c2)ccc1Cl` [Compound 2, 3-((4-(N-(5-chloro-6-(2,6-dimethylphenyl)pyridin-2-yl)sulfamoyl)pyridin-2-yl)amino)propanoic Acid], the EC50 was 2720 nM and the Emax was 124%. As for `Cc1cccc(C)c1-c1nc(NS(=O)(=O)c2cccc(NCCCC(=O)O)n2)ccc1Cl` [Compound 3, 4-((6-(N-(5-chloro-6-(2,6-dimethylphenyl)pyridin-2-yl)sulfamoyl)pyridin-2-yl)amino)butanoic Acid], the EC50 turned out to be 2580 nM and the Emax was determined as 722%. As to `Cc1cccc(C)c1-c1nc(NS(=O)(=O)c2cccc(NCCCCC(=O)O)n2)ccc1Cl` [Compound 4, 5-((6-(N-(5-chloro-6-(2,6-dimethylphenyl)pyridin-2-yl)sulfamoyl)pyridin-2-yl)amino)pentanoic Acid], the 50% effective concentration (EC50) worked out at 2190 nM.

`Cc1cccc(C)c1-c1nc(NS(=O)(=O)c2cccc(N3CCC(CC(=O)O)CC3)n2)ccc1Cl` [Compound 5, 2-(1-(6-(N-(5-chloro-6-(2,6-dimethylphenyl)pyridin-2-yl)sulfamoyl)pyridin-2-yl)piperidin-4-yl)acetic Acid]: the concentration for a half-maximal effect (EC50) came to 2580 nM and the Emax was determined as 596%. The corresponding values for `Cc1ccc(F)cc1-c1nc(NS(=O)(=O)c2cccc(N3CCC(C)(CC(=O)O)CC3)n2)ccc1C(F)(F)F` [Compound 6, 2-(1-(6-(N-(6-(5-fluoro-2-methylphenyl)-5-(trifluoromethyl)pyridin-2-yl)sulfamoyl)pyridin-2-yl)-4-methylpiperidin-4-yl)acetic Acid] are 1520 nM and 529%. The corresponding values for `Cc1ccccc1-c1nc(NS(=O)(=O)c2cccc(N3CCC(C)(CC(=O)O)CC3)n2)ccc1C(F)(F)F` [Compound 7, 2-(4-methyl-1-(6-(N-(6-(o-tolyl)-5-(trifluoromethyl)pyridin-2-yl)sulfamoyl)pyridin-2-yl)piperidin-4-yl)acetic Acid] are 1880 nM and 363%.

For the molecule `Cc1ccccc1-c1nc(NS(=O)(=O)c2cccc(NCC(C)(C)C(=O)O)n2)ccc1C(F)(F)F` [Compound 8, 2,2-dimethyl-3-((6-(N-(6-(o-tolyl)-5-(trifluoromethyl)pyridin-2-yl)sulfamoyl)pyridin-2-yl)amino)propanoic Acid], the EC50 was 1850 nM and the Emax was found to be 271%. As to `Cc1ccccc1-c1nc(NS(=O)(=O)c2cccc(N3CCC(O)(C(C)(C)C(=O)O)CC3)n2)ccc1C(F)(F)F` [Compound 9, 2-(4-hydroxy-1-(6-(N-(6-(o-tolyl)-5-(trifluoromethyl)pyridin-2-yl)sulfamoyl)pyridin-2-yl)piperidin-4-yl)-2-methylpropanoic Acid], the EC50 stood at 2020 nM and the Emax amounted to 102%. For `Cc1ccccc1-c1nc(NS(=O)(=O)c2cccc(N3CCC(C(C)(C)C(=O)O)CC3)n2)ccc1C(F)(F)F` [Compound 10, 2-methyl-2-(1-(6-(N-(6-(o-tolyl)-5-(trifluoromethyl)pyridin-2-yl)sulfamoyl)pyridin-2-yl)piperidin-4-yl)propanoic Acid], the EC50 came to 910 nM and the Emax was 266%. The corresponding values for `Cc1ccccc1-c1nc(NS(=O)(=O)c2cccc(NCC3(C(=O)O)CC3)n2)ccc1C(F)(F)F` [Compound 11, 1-(((6-(N-(6-(o-tolyl)-5-(trifluoromethyl)pyridin-2-yl)sulfamoyl)pyridin-2-yl)amino)methyl)cyclopropane-1-carboxylic Acid] are 2250 nM and 415%.

Regarding `Cc1ccccc1-c1nc(NS(=O)(=O)c2cccc(NCC3(C(=O)O)CCC3)n2)ccc1C(F)(F)F` [Compound 12, 1-(((6-(N-(6-(o-tolyl)-5-(trifluoromethyl)pyridin-2-yl)sulfamoyl)pyridin-2-yl)amino)methyl)cyclobutane-1-carboxylic Acid], the EC50 turned out to be 2300 nM and the Emax amounted to 608%. On to `Cc1c(F)cccc1-c1nc(NS(=O)(=O)c2cccc(N3CCC(C)(CC(=O)O)CC3)n2)ccc1C(F)(F)F` [Compound 13, 2-(1-(6-(N-(6-(3-fluoro-2-methylphenyl)-5-(trifluoromethyl)pyridin-2-yl)sulfamoyl)pyridin-2-yl)-4-methylpiperidin-4-yl)acetic Acid], for which the EC50 was found to be 2400 nM and the Emax was found to be 370%. The corresponding values for `Cc1ccccc1-c1nc(NS(=O)(=O)c2cccc(N3CCC(CC(=O)O)CC3)n2)ccc1C(F)(F)F` [Compound 14, 2-(1-(6-(N-(6-(o-tolyl)-5-(trifluoromethyl)pyridin-2-yl)sulfamoyl)pyridin-2-yl)piperidin-4-yl)acetic Acid] are 2550 nM and 283%. The corresponding values for `CCc1ccccc1-c1nc(NS(=O)(=O)c2cccc(N3CCC(CC(=O)O)CC3)n2)ccc1C(F)(F)F` [Compound 15, 2-(1-(6-(N-(6-(2-ethylphenyl)-5-(trifluoromethyl)pyridin-2-yl)sulfamoyl)pyridin-2-yl)piperidin-4-yl)acetic Acid] are 2140 nM and 397%. The corresponding values for `O=C(O)CC1CCN(c2cccc(S(=O)(=O)Nc3ccc(C(F)(F)F)c(-c4ccccc4-c4ccccc4)n3)n2)CC1` [Compound 16, 2-(1-(6-(N-(6-([1,1′-biphenyl]-2-yl)-5-(trifluoromethyl)pyridin-2-yl)sulfamoyl)pyridin-2-yl)piperidin-4-yl)acetic Acid] are 2010 nM and 495%. Turning to `O=C(O)CC1CCN(c2cccc(S(=O)(=O)Nc3ccc(C(F)(F)F)c(-c4ccccc4C4CCC4)n3)n2)CC1` [Compound 17, 2-(1-(6-(N-(6-(2-cyclobutylphenyl)-5-(trifluoromethyl)pyridin-2-yl)sulfamoyl)pyridin-2-yl)piperidin-4-yl)acetic Acid], the EC50 worked out at 1460 nM and the Emax was 369%.

In general, EC50 refers to the midpoint of the concentration-response curve.
